These results are taken from ChEMBL document CHEMBL1201862, “PubChem BioAssay data set” (2004).

Active and inactive are the calls of the source.

The nature of assay [1]: LGR2 antagonists, dose response, cell-based, HEK293, CRE-luciferase reporter, cherry pick, set 2 (AID 743343).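 Note: transfected cells were stimulated with diluted bursicon conditioned medium after compound addition.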 It counts as functional.
Assay [2] in a line: MC4R antagonists, dose response, counter-screen for LGR2 antagonist project, cell-based, plate reader, cherry pick (AID 743444).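 Note: transfected HEK 293 cells stimulated with alpha-MSH peptide; potency of inhibitors of the alpha-MSH evoked signal.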 It counts as functional. In general terms: The purpose of a counterscreen is to sort out artefacts and off-target activity.
Assay [3] in a line: A549 cell cytotoxicity, dose response, cytotoxicity control, plate reader, cherry-pick, antagonist series (AID 743412). It counts as functional, cell-based.
Assay [4] in a line: HEK293 cell cytotoxicity, dose response, cytotoxicity control, plate reader, cherry-picked samples (AID 743446). It counts as functional, cell-based.
Assay [5] in a line: HepG2 cell cytotoxicity, dose response, cytotoxicity control, plate reader, cherry-pick, antagonist series (AID 743416). It counts as functional, cell-based.
Another assay relates to HT-1080. Put plainly: cytotoxicity in HT1080 fibrosarcoma cells, cell-based, fluorescence readout (AID 620). As to conditions: Homo sapiens. It counts as functional.
The target of assay [6] is T1, Luciferin 4-monooxygenase (Photinus pyralis, UniProt P08659). The assay is described as follows: Counter Screen for Luciferase-based Assay Positives. [Related pubchem assays: 620, 618, 411 ].
Assay [7] deals with T2, Calpain-2 catalytic subunit (Sus scrofa, UniProt P43367).
T2 sequence (P43367 whole entry): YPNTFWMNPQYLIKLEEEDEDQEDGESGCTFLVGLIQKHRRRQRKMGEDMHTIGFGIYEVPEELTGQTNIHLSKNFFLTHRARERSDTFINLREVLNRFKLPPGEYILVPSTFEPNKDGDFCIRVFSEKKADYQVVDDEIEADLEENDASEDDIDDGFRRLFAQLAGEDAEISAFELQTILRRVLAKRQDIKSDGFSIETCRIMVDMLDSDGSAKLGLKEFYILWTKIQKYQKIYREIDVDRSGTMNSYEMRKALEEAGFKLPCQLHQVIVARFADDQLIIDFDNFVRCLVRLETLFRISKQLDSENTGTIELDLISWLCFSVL
Put plainly: pig calpain II inhibitor potency, dose response, biochemical, fluorogenic peptide substrate (AID 1420). It counts as functional.

Assay [8] in a line: inhibitors of HIV Env-driven cell fusion, dose response, cherry-pick (AID 652057). It counts as functional, cell-based.
Assay [9] in a line: inhibitors of clade B AD8 Env fusion, dose response, cell-based, cherry-pick (AID 652062).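 Note: luciferase signal from cell-cell fusion driven by HIV-1 clade B AD8 Env; potency is for inhibitors of fusion seen as a drop in luminescence.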 It counts as functional.
Assay [10] in a line: CEM21 lymphoblast cell cytotoxicity, dose response, cytotoxicity control for viral fusion inhibitor project, CellTiter-Glo luminescence, cherry-picked (AID 652042).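 Note: potency for signal decrease meaning cytotoxicity.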 It counts as functional, cell-based.
For assay [11], the target named is T3, Nuclear receptor subfamily 0 group B member 1 (Homo sapiens, UniProt P51843).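 Note: HEK293T cells transfected with SF-1 and DAX-1 plus StAR promoter luciferase reporter.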
T3 sequence (P51843 whole entry): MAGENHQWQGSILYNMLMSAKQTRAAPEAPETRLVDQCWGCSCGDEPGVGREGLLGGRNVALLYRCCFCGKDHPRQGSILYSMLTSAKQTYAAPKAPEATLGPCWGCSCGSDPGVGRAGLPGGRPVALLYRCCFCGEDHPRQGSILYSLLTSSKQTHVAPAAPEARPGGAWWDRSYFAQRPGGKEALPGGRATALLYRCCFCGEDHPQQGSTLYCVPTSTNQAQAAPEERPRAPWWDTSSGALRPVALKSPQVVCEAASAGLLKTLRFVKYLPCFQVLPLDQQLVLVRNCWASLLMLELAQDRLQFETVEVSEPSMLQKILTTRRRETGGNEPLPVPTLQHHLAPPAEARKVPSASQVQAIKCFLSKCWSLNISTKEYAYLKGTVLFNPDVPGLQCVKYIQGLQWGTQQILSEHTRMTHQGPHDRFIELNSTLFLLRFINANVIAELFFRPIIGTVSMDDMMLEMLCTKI
It counts as functional, cell-based.

The nature of another assay: cells. It counts as functional, cell-based.
Assay [12] addresses T4, DNA repair protein RAD52 homolog (Homo sapiens, UniProt P43351).
T4 sequence (P43351 whole entry): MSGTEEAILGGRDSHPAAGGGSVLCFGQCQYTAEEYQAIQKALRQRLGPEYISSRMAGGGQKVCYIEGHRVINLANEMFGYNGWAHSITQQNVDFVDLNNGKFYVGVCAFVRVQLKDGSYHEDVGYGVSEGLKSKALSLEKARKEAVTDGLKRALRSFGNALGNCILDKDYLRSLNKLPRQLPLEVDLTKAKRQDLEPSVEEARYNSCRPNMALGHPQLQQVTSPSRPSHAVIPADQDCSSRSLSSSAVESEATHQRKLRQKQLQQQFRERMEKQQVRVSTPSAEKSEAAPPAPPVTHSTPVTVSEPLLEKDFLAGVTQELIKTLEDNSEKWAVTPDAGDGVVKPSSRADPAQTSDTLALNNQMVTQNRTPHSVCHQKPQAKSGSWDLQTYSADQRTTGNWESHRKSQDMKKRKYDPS
It counts as functional, biochemical.

The target of assay [13] is T5, Sentrin-specific protease 6 (Homo sapiens, UniProt Q9GZR1).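 Note: Luminescence-based dose-response confirmatory assay of SENP6 inhibition, following up an ultra-high-throughput screen.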
T5 sequence (Q9GZR1 whole entry): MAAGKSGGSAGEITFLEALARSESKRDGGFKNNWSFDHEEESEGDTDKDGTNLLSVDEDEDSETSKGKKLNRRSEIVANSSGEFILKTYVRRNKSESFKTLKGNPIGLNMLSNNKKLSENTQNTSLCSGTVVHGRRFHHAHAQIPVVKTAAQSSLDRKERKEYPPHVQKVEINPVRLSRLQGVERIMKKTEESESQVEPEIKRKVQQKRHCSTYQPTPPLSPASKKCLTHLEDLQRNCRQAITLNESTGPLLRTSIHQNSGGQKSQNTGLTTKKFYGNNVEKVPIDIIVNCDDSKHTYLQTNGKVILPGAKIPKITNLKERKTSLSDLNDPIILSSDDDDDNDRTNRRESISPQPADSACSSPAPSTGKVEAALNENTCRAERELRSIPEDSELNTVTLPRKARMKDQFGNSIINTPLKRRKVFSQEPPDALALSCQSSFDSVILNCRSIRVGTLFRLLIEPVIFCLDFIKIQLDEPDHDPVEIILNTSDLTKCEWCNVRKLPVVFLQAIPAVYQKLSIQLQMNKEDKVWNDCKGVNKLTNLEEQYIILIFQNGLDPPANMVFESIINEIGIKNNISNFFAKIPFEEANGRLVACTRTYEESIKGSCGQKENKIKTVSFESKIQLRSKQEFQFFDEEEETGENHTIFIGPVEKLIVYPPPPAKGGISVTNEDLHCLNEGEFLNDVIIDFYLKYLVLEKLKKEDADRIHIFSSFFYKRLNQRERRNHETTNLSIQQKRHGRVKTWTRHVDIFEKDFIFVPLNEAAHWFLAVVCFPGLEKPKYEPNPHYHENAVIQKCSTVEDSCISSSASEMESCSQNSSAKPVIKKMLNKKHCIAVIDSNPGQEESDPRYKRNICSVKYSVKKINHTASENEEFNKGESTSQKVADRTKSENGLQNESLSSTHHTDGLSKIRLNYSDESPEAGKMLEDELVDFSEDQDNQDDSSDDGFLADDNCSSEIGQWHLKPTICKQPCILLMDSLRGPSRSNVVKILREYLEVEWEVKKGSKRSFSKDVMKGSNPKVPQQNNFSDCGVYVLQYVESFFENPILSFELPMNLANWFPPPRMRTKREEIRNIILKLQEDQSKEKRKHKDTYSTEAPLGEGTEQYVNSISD
It counts as functional.

The target in another assay is T6, Caspase-3 (Homo sapiens, UniProt P42574).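 Note: Dose-response selectivity test against caspase-3 for candidate inhibitors of sentrin-specific proteases (SENPs).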
T6 sequence (P42574 whole entry): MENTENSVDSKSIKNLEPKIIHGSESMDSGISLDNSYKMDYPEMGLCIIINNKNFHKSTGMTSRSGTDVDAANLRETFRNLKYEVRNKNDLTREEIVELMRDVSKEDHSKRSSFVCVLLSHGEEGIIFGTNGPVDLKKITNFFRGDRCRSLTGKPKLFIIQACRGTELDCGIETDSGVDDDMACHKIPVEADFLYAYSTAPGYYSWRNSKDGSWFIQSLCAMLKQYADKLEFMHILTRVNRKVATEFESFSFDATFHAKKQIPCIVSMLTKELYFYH
It counts as functional.

Assay [14] addresses T7, Sentrin-specific protease 7 (Homo sapiens, UniProt Q9BQF6).
T7 sequence (Q9BQF6 whole entry): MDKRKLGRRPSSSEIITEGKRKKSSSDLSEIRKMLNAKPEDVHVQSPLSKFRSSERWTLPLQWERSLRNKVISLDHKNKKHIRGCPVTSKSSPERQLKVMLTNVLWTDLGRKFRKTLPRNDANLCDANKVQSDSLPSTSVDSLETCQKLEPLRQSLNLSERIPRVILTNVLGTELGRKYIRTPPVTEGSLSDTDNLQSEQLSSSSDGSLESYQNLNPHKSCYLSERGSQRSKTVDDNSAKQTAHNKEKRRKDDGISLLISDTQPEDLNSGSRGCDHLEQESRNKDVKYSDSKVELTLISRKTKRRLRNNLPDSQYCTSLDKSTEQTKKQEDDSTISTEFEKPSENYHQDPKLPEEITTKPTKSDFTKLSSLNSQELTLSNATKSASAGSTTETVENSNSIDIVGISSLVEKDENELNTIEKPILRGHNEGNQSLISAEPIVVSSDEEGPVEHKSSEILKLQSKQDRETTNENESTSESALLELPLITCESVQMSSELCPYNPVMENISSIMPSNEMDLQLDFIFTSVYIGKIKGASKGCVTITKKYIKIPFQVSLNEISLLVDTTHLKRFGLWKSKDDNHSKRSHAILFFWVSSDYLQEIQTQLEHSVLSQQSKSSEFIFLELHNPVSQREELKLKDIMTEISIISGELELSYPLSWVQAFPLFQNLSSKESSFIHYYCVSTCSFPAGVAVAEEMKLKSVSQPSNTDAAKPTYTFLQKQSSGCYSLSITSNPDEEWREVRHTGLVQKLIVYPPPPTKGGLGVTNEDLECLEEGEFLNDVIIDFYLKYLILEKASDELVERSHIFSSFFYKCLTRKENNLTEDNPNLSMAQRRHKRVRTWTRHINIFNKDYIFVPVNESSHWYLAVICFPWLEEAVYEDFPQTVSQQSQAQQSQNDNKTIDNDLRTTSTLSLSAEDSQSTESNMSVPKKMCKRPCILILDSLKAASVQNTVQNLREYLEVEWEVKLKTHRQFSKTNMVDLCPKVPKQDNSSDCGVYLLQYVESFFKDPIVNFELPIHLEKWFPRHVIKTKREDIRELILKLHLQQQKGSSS
It counts as functional.

In assay [15] the target is T8, Sentrin-specific protease 8 (Homo sapiens, UniProt Q96LD8).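 Note: luminescence read-out of SENP8 inhibition, dose-response confirmation following an ultra-high-throughput screen.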
T8 sequence (Q96LD8 whole entry): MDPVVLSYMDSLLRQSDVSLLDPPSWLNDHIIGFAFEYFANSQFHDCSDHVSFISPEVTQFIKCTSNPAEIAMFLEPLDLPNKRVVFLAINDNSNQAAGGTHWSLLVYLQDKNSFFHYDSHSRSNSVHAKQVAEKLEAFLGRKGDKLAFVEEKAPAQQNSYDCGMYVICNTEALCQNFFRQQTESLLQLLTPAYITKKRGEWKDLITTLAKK
It counts as functional.

Assay [16] can be described thus: off-target signal loss in HeLa-CEM21 co-culture – HeLa F-luc CTL cells, cherry-picked, counter-screen for HIV-1 Env fusion inhibitor project, dose response (AID 652040).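 Note: potency for signal decrease marking cytotoxic or nonspecific inhibition.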 It counts as functional, cell-based.
The nature of assay [17]: ZM109 Env clade C HIV-1 fusion inhibitors, dose response, HeLa effector, CEM target cells, luciferase, cherry-pick (AID 652058). It counts as functional, cell-based.
The nature of assay [18]: Luminescence Cell-Based Dose Confirmation HTS to Identify Inhibitors of Platelet Dense Granule Release. [Related pubchem assays: 1663 (Primary HTS), 1678 (Summary of Project)]. It counts as functional.
Assay [19] has as its target T1, Luciferin 4-monooxygenase. The assay is described as follows: firefly luciferase enzyme inhibitors, dose response, biochemical, luminescence (AID 1891).

T1 sequence (P08659 whole entry): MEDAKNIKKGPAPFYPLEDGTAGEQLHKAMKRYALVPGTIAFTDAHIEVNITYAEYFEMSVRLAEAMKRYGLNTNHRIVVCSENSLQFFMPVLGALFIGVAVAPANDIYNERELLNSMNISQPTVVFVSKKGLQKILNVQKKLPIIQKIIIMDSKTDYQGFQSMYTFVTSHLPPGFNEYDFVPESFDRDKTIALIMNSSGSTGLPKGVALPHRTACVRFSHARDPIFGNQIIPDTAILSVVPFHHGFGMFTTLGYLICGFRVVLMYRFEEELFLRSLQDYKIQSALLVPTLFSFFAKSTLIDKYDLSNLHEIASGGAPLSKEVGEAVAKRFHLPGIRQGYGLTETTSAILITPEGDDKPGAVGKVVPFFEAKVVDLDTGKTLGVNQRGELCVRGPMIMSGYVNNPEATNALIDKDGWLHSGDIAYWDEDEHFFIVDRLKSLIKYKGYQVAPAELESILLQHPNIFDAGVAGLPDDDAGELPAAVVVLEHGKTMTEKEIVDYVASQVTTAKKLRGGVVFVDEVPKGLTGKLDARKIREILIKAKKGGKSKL

`Cc1ccnc(Nc2nc3ccccc3o2)n1`: the half-maximal activity concentration (AC50) – broadly, the concentration at which the activity in the assay is half-maximal – was 5.98 µM (active) in [1]; 4.77 µM (active) in [2]; 43.5 µM (active) in assay [3]; 30.1 µM (active) in assay [4]; 46.8 µM (active) in assay [5]. Further, the half-maximal effective concentration (EC50) – broadly, the concentration that produces a half-maximal response – in the assay on HT-1080 was > 50 µM (not active); in assay [6], 3.04 µM (active). Besides, in assay [7], the IC50 – broadly, the point on the concentration scale where inhibition reaches its midpoint – is recorded as > 50 µM (not active).
In the case of `Cn1c(=O)c2c(nc(NCCc3ccccc3)n2Cc2ccccc2)n(C)c1=O`, the figures for the AC50 in [8], in assay [9] and in [10] were 30.8 µM (active), 12 µM (active) and 49.1 µM (active), respectively.
In the case of `COc1ccc(/C=C2\Sc3ccc(C(=O)NCCCN4CCCC4)cc3N(C)C2=O)cc1OC`, the IC50 (in assay [11]; in the assay “cells”) was > 67.5 µM (inactive) in each case. For the same molecule, the AC50 in assay [12] was 3.69 µM (active).
Turning to `CCOc1cccc(C(=O)Nc2ccc3ccccc3c2)c1`, the half-maximal activity concentration (AC50) is 5.95 µM (active) in assay [1]; 5.43 µM (active) in assay [2]; > 52 µM (inactive) in assay [3]; > 52 µM (inactive) in [4]; > 52 µM (inactive) in [5]. The IC50 was 2.37 µM (active) in [13], 3.54 µM (active) at Caspase-3, 1.46 µM (active) in [14] and 4.95 µM (active) in assay [15].
Take `C/C=C1\COC(C(=O)NCc2cccc(OC)c2OC)(C(F)(F)F)C=C1C=C1CCCCC1` (configuration not stated): the AC50 in [16] is 50.1 µM (active); in assay [8] it was 19.8 µM (active); in assay [17], 9 µM (active); in assay [9] it was 35.6 µM (active); in assay [10] it was 22.3 µM (active).
Consider `COc1ccc(-n2nnnc2C(c2cccc(OC)c2OC)N2CCC(n3c(O)nc4ccccc43)CC2)cc1` (configuration not stated), for which the AC50 in [1] was 17.6 µM (active); in assay [2], 21.5 µM (active); in assay [3], 25.6 µM (active); in [4], 17.6 µM (active); in [5], > 52 µM (inactive).
Regarding `C=C[C@@]1(C)CC(=O)[C@]2(O)[C@@]3(C)[C@@H](O)CCC(C)(C)[C@@H]3[C@H](O)[C@H](OC(C)=O)[C@@]2(C)O1` [COLFORSIN], the results for the IC50 (in assay [11]; in the assay “cells”) were 1.73 µM (active) and > 67.5 µM (inactive), respectively. In addition, the concentration giving a half-maximal response (EC50) was < 0.088 µM (active) in assay [18] and > 112 µM (not active) in assay [19].
